The text below walks through data of patent publication US20260207602A1, “EGFR INHIBITORS” (Blueprint Medicines Corporation, priority 2022, published 2026).

The target in one test is T1, EGFR (d746-750) (Homo sapiens, UniProt P00533, DEL746-750).
T1 construct: purchased SignalChem E10-122JG
The experiment in a line: Biochemical EGFR inhibition assay (Caliper mobility shift), EGFR (d746-750). To be noted: read-out: Enz EGFR Exon 19-del IC50. In a few lines: (§1)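 Recombinant EGFR mutant phosphorylates 2.5 μM 5-FAM peptide at 1.0 mM ATP or ATP Km, in 100 mM HEPES pH 7.5, 10 mM MgCl2, 1 mM DTT, 1% DMSO, 25 °C to 10–20% conversion, EDTA stop. Caliper mobility shift separation; apparent IC50 from percent activity versus log concentration.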

The next test deals with T2, EGFR L858R (Homo sapiens, UniProt P00533, L858R).
T2 construct: purchased SignalChem E10-122BG
T2 sequence (P00533 25-1210 L858R): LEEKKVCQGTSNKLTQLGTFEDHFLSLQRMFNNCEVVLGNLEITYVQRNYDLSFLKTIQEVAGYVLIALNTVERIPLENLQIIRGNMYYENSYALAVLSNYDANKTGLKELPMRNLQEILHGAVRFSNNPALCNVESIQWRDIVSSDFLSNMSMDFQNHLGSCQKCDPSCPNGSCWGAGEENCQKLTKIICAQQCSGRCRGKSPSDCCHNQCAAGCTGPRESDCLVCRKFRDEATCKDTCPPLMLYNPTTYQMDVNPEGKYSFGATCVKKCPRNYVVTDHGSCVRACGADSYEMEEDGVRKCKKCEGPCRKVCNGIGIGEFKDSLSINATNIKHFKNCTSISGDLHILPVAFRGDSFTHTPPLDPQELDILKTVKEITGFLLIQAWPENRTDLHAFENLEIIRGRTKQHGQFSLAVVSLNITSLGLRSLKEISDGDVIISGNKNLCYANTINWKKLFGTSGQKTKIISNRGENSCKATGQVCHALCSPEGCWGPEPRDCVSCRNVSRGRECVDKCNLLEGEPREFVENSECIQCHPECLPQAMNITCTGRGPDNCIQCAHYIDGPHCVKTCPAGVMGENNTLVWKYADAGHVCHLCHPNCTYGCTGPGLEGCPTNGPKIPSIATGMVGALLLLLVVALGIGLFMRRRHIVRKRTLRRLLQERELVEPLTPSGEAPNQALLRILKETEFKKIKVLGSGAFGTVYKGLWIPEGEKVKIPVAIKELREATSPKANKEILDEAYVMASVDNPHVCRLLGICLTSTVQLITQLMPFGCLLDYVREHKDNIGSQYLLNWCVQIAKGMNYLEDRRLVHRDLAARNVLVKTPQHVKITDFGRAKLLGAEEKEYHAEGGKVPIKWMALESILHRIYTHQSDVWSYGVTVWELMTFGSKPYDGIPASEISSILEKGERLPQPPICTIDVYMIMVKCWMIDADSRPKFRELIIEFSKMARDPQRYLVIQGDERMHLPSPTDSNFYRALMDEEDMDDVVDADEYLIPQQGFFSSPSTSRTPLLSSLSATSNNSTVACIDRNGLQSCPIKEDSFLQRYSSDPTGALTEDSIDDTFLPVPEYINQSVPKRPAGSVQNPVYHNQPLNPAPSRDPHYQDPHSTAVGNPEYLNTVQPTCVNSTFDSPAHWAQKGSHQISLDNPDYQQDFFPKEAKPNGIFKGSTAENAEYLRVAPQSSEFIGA
The experiment in a line: Biochemical EGFR inhibition assay (Caliper mobility shift), EGFR L858R. As to conditions: read-out: Enz EGFR L858R IC50. The method in brief:
as §1

Test [1] concerns the target intracellular phosphorylation of EGFR (Tyr1068) in PC-9 cells (Homo sapiens, UniProt P00533, DEL746-750). The experiment in a line: PC-9 pEGFR AlphaLISA assay. Format: cell-based. As to conditions: 4 hours incubation, read-out: Phos EGFR PC9 IC50. In a few lines: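 PC-9 cells (EGFR del746-750) in phenol-free DMEM/10% FBS, adhered overnight, then exposed to 10-point 4-fold compound dilutions for 4 h at 37 °C. Lysates assayed for pEGFR Tyr1068 by AlphaLISA SureFire Ultra; IC50 from percent pEGFR inhibition vs log concentration.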
(In general: In Alpha technology, singlet oxygen from a donor bead excites a nearby acceptor bead.)

[2] abbreviates: biochemical Caliper mobility shift assay, EGFR Exon 19-del enzyme.
[3] abbreviates: biochemical Caliper mobility shift assay, EGFR L858R enzyme.

Read-outs that look alike come from different tables or passages of the source. Where only a bound is given, the exact number is not on record here.

intracellular phosphorylation of EGFR (Tyr1068) in PC-9 cells, sequence (P00533 with tags, fused parts or gaps DEL746-750): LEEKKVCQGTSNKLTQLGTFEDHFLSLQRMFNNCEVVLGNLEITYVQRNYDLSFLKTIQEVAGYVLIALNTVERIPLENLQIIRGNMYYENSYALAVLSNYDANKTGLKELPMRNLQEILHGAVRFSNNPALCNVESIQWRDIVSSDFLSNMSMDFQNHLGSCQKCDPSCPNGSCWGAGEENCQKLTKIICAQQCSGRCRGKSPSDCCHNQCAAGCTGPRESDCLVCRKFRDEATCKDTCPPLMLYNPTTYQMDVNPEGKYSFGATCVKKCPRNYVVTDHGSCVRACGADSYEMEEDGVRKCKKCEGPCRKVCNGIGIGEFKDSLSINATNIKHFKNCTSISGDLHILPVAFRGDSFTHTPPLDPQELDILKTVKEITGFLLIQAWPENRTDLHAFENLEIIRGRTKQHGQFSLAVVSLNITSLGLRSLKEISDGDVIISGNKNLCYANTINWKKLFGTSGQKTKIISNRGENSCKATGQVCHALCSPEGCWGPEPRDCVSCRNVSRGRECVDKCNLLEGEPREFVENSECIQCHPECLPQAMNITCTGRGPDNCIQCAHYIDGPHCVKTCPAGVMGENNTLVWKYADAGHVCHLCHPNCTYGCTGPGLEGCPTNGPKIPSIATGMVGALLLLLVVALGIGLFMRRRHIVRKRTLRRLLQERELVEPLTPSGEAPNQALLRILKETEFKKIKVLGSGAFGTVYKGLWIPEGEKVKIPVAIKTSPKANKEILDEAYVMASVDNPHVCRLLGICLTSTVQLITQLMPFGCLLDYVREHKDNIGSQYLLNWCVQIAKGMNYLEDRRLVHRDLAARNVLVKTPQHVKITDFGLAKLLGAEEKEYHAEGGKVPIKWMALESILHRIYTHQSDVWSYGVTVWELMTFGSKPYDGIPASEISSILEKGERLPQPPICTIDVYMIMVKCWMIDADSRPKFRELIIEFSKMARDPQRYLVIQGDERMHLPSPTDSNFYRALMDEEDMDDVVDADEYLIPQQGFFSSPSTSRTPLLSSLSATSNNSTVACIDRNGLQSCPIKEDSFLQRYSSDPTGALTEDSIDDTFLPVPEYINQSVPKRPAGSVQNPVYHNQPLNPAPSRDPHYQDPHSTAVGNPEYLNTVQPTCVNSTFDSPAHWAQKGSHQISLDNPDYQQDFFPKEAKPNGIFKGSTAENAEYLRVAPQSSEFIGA
T1 sequence (P00533 with tags, fused parts or gaps DEL746-750 limits assumed): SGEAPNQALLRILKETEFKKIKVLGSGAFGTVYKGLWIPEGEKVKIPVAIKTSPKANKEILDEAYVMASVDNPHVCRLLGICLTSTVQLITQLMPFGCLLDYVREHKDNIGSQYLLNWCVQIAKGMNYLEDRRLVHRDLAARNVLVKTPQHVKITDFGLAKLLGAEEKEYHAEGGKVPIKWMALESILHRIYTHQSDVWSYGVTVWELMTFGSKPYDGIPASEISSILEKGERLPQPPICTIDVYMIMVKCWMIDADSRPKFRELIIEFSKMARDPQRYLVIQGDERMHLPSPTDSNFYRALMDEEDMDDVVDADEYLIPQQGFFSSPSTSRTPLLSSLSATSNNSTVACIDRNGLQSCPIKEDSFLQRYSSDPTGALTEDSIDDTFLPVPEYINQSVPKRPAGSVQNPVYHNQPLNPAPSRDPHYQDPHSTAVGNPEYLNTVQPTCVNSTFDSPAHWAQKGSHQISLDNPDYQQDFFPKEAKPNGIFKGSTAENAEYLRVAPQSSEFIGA

In the case of `C[C@@H](Oc1cc(-c2cnn(C)c2)cc2ncnc(Nc3ccc4ncsc4c3F)c12)[C@@H]1CCCO1` [Example 112, 7-fluoro-N-(7-(1-methyl-1H-pyrazol-4-yl)-5-((R)-1-((S)-tetrahydrofuran-2-yl)ethoxy)quinazolin-4-yl)benzo[d]thiazol-6-amine], the IC50 (on EGFR (d746-750) (setting [2]); on EGFR L858R (setting [3]); in test [1]) was at most 10 nM throughout.

Turning to `COCCOc1cc(O[C@H](C)C2COC2)c2c(Nc3ccc4ncsc4c3)ncnc2c1` [Example 126, (R)-N-(7-(2-methoxyethoxy)-5-(1-(oxetan-3-yl)ethoxy)quinazolin-4-yl)benzo[d]thiazol-6-amine], the IC50 (at EGFR (d746-750) (setting [2]); on EGFR L858R (setting [3]); in test [1]) was at most 10 nM each time.

Consider `COc1nn(C)cc1-c1cc(O[C@@H]2CCNC[C@@H]2F)c2c(Nc3ccc4ncsc4c3)ncnc2c1` [Example 363, N-(5-(((3S,4R)-3-fluoropiperidin-4-yl)oxy)-7-(3-methoxy-1-methyl-1H-pyrazol-4-yl)quinazolin-4-yl)benzo[d]thiazol-6-amine], for which the concentration for half-maximal inhibition (IC50) (on EGFR (d746-750) (setting [2]); on EGFR L858R (setting [3]); in test [1]) was at most 10 nM throughout.

Regarding `CN1CC[C@@H](Oc2cc(-c3cnn(C)c3)cc3ncnc(Nc4ccc5ncsc5c4)c23)C1` [Example 35, (R)-N-(7-(1-methyl-1H-pyrazol-4-yl)-5-((1-methylpyrrolidin-3-yl)oxy)quinazolin-4-yl)benzo[d]thiazol-6-amine], the IC50 at EGFR (d746-750) (setting [2]) is at most 10 nM; on EGFR L858R (setting [3]) it was 10.1 to 50 nM; in test [1] it was 10.1 to 50 nM.

With `Cn1cc(-c2cc(O[C@H]3C[C@@H](O)C3)c3c(Nc4ccc5ncsc5c4)ncnc3c2)cn1` [Example 20, cis-3-((4-(benzo[d]thiazol-6-ylamino)-7-(1-methyl-1H-pyrazol-4-yl)quinazolin-5-yl)oxy)cyclobutan-1-ol], the IC50 (on EGFR (d746-750) (setting [2]); at EGFR L858R (setting [3]); in test [1]) was at most 10 nM in each case.

Consider `Cn1cc(-c2cc(O[C@H]3C[C@H](O)C3)c3c(Nc4ccc5ncsc5c4)ncnc3c2)cn1` [Example 19, trans-3-((4-(benzo[d]thiazol-6-ylamino)-7-(1-methyl-1H-pyrazol-4-yl)quinazolin-5-yl)oxy)cyclobutan-1-ol], for which the IC50 (at EGFR (d746-750) (setting [2]); on EGFR L858R (setting [3]); in test [1]) was at most 10 nM each time.

Take `COc1nn(C)cc1-c1cc(O[C@@H]2CCN(C)C[C@H]2F)c2c(Nc3ccc4ncsc4c3F)ncnc2c1` [Example 351, 7-fluoro-N-(5-(((3R,4R)-3-fluoro-1-methylpiperidin-4-yl)oxy)-7-(3-methoxy-1-methyl-1H-pyrazol-4-yl)quinazolin-4-yl)benzo[d]thiazol-6-amine]: the IC50 (on EGFR (d746-750) (setting [2]); on EGFR L858R (setting [3]); in test [1]) was at most 10 nM in each case.

`CCC(=O)N1CCC(Nc2cc3c(Nc4ccc5ncsc5c4)ncnc3cc2-c2ccn(C)n2)CC1` [Example 257, 1-(4-((4-(benzo[d]thiazol-6-ylamino)-7-(1-methyl-1H-pyrazol-3-yl)quinazolin-6-yl)amino)piperidin-1-yl)propan-1-one]: the half-maximal inhibitory concentration (IC50) (at EGFR (d746-750) (setting [2]); on EGFR L858R (setting [3]); in test [1]) was at most 10 nM in each case.

For `CN1CC[C@H](Nc2cc3c(Nc4ccc5ncsc5c4)ncnc3cc2-c2ccn(C)n2)[C@H](F)C1` (single isomer, unassigned) [Example A05, N4-(benzo[d]thiazol-6-yl)-N6-((3R,4S)-3-fluoro-1-methylpiperidin-4-yl)-7-(1-methyl-1H-pyrazol-3-yl)quinazoline-4,6-diamine or N4-(benzo[d]thiazol-6-yl)-N6-((3S,4R)-3-fluoro-1-methylpiperidin-4-yl)-7-(1-methyl-1H-pyrazol-3-yl)quinazoline-4,6-diamine], the IC50 (on EGFR (d746-750) (setting [2]); at EGFR L858R (setting [3]); in test [1]) was at most 10 nM throughout.

With `C[C@@H]1CNCCN1c1cc(O[C@H](C)C2COC2)c2c(Nc3ccc4ncsc4c3F)ncnc2c1` (single isomer, unassigned) [Example 105], the IC50 was at most 10 nM on EGFR (d746-750) (setting [2]), 10.1 to 50 nM on EGFR L858R (setting [3]) and 10.1 to 50 nM in test [1].

As for `CO[C@@H]1CCNC[C@H]1Oc1cc(-c2cnn(C)c2)cc2ncnc(Nc3ccc4ncsc4c3)c12` (single isomer, unassigned) [Example A38], the values for the IC50 (at EGFR (d746-750) (setting [2]); on EGFR L858R (setting [3]); in test [1]) were at most 10 nM, 10.1 to 50 nM and 10.1 to 50 nM, respectively.

Regarding `CN1CCC2(COC2)[C@H](Oc2cc(-c3cnn(C)c3)cc3ncnc(Nc4ccc5ncsc5c4)c23)C1` (single isomer, unassigned) [Example 353], the IC50 (at EGFR (d746-750) (setting [2]); at EGFR L858R (setting [3]); in test [1]) was at most 10 nM each time.

As for `Cn1cc(-c2cc(OC3CCN(CC(F)F)CC3)c3c(Nc4ccc5ncsc5c4F)ncnc3c2)cn1` [Example 310, N-(5-((1-(2,2-difluoroethyl)piperidin-4-yl)oxy)-7-(1-methyl-1H-pyrazol-4-yl)quinazolin-4-yl)-7-fluorobenzo[d]thiazol-6-amine], the IC50 (on EGFR (d746-750) (setting [2]); at EGFR L858R (setting [3]); in test [1]) was at most 10 nM in each case.

As to `CC(CN(C)C)Oc1cc(N2CC(C)OC(C)C2)cc2ncnc(Nc3ccc4ncsc4c3)c12` (single isomer, unassigned) [Example 150], the values for the IC50 (on EGFR (d746-750) (setting [2]); on EGFR L858R (setting [3]); in test [1]) were at most 10 nM, 10.1 to 50 nM and at most 10 nM, respectively.

For `COc1cn(C)nc1-c1cc(O[C@H](C)C2COC2)c2c(Nc3ccc4ncsc4c3)ncnc2c1` (single isomer, unassigned) [Example 120], the IC50 (on EGFR (d746-750) (setting [2]); on EGFR L858R (setting [3]); in test [1]) was at most 10 nM in each case.

On to `C[C@H](CO)Oc1cc(-c2cnn(C)c2)cc2ncnc(Nc3ccc4ncsc4c3F)c12` (single isomer, unassigned) [Example 289], for which the IC50 (on EGFR (d746-750) (setting [2]); at EGFR L858R (setting [3]); in test [1]) was at most 10 nM in each case.

As for `Cn1cc(-c2cc(OC3CC4(COC4)C3)c3c(Nc4ccc5ncsc5c4)ncnc3c2)cn1` [Example 38, N-(5-((2-oxaspiro[3.3]heptan-6-yl)oxy)-7-(1-methyl-1H-pyrazol-4-yl)quinazolin-4-yl)benzo[d]thiazol-6-amine], the IC50 (at EGFR (d746-750) (setting [2]); at EGFR L858R (setting [3]); in test [1]) was at most 10 nM each time.

As to `CN1C[C@H](F)C[C@H](Oc2cc(-c3cnn(C)c3)cc3ncnc(Nc4ccc5ncsc5c4)c23)C1` (single isomer, unassigned) [Example 336], the half-maximal inhibitory concentration (IC50) (at EGFR (d746-750) (setting [2]); on EGFR L858R (setting [3]); in test [1]) was at most 10 nM in each case.

For `Cn1cc(-c2cc(O[C@@H]3CCOC3)c3c(Nc4ccc5ncsc5c4)ncnc3c2)cn1` [Example 37, (R)-N-(7-(1-methyl-1H-pyrazol-4-yl)-5-((tetrahydrofuran-3-yl)oxy)quinazolin-4-yl)benzo[d]thiazol-6-amine], the IC50 was at most 10 nM on EGFR (d746-750) (setting [2]), at most 10 nM on EGFR L858R (setting [3]) and 10.1 to 50 nM in test [1].

As for `COc1cn(C)nc1-c1cc(OC2CCN(C)CC2)c2c(Nc3ccc4ncsc4c3)ncnc2c1` [Example 314, N-(7-(4-methoxy-1-methyl-1H-pyrazol-3-yl)-5-((1-methylpiperidin-4-yl)oxy)quinazolin-4-yl)benzo[d]thiazol-6-amine], the IC50 (at EGFR (d746-750) (setting [2]); on EGFR L858R (setting [3]); in test [1]) was at most 10 nM in each case.

For `COc1nn(C)cc1-c1cc(O[C@H]2CNC[C@H]2F)c2c(Nc3ccc4ncsc4c3)ncnc2c1` (racemic) [Example 371, N-(5-(((3S,4R)-4-fluoropyrrolidin-3-yl)oxy)-7-(3-methoxy-1-methyl-1H-pyrazol-4-yl)quinazolin-4-yl)benzo[d]thiazol-6-amine and N-(5-(((3R,4S)-4-fluoropyrrolidin-3-yl)oxy)-7-(3-methoxy-1-methyl-1H-pyrazol-4-yl)quinazolin-4-yl)benzo[d]thiazol-6-amine], the IC50 on EGFR (d746-750) (setting [2]) is at most 10 nM; at EGFR L858R (setting [3]), 10.1 to 50 nM; in test [1] it was 10.1 to 50 nM.

For the compound `C[C@@H](Oc1c(F)c(-c2cnn(C)c2)cc2ncnc(Nc3ccc4ncsc4c3F)c12)C1COC1` (single isomer, unassigned) [Example A27], the values for the IC50 (at EGFR (d746-750) (setting [2]); at EGFR L858R (setting [3]); in test [1]) were at most 10 nM, at most 10 nM and 10.1 to 50 nM, respectively.

Consider `CN1CCC[C@H](Oc2cc(C#CCN3CCOCC3)cc3ncnc(Nc4ccc5ncsc5c4)c23)C1` [Example A25, N-(1,3-benzothiazol-6-yl)-5-{[(3S)-1-methylpiperidin-3-yl]oxy}-7-[3-(morpholin-4-yl)prop-1-yn-1-yl]quinazolin-4-amine], for which the IC50 on EGFR (d746-750) was below 10 nM; at EGFR L858R, below 10 nM; in test [1], 10.1 to 50 nM.

For the compound `C[C@H](Oc1cc(-c2cnn(C)c2)cc2ncnc(Nc3ccc4ncsc4c3)c12)C1CC1` [Example 66, (S)-N-(5-(1-cyclopropylethoxy)-7-(1-methyl-1H-pyrazol-4-yl)quinazolin-4-yl)benzo[d]thiazol-6-amine], the IC50 (on EGFR (d746-750) (setting [2]); on EGFR L858R (setting [3]); in test [1]) was at most 10 nM in each case.

As to `C[C@@H]1CNCCN1c1cc(O[C@H](C)C2COC2)c2c(Nc3ccc4ncsc4c3F)ncnc2c1` (single isomer, unassigned) [Example 104], the IC50 is at most 10 nM on EGFR (d746-750) (setting [2]), at most 10 nM at EGFR L858R (setting [3]) and 10.1 to 50 nM in test [1].

What is called IC50 is the point on the concentration scale where inhibition reaches its midpoint.
